Paper PMC10579241, “Impact of trifluoromethyl and sulfonyl groups on the biological activity of novel aryl-urea derivatives: synthesis, in-vitro, in-silico and SAR studies” (Scientific Reports, 2023)
Marks after values point to notes of the source that are not given here.

Experiments:
[1] = tested on: A549; assay: DNA damage, comet assay, A549; format: cell-based, human; details: of 400 cells analyzed
[2] = tested on: PC3; assay: DNA fragmentation assay, PC3; format: cell-based, human
[3] = tested on: skin cancer (A431); assay: cells; format: cell-based; details: Homo sapiens, 48 h
[4] = tested on: BRCA1; assay: qRT-PCR, BRCA1 in PC3 cells; format: cell-based, human; details: versus negative samples
[5] = tested on: normal skin fibroblast cell line (BJ1); assay: cells; format: cell-based; details: Homo sapiens, Skin fibroblast, MTT, 48 h
[6] = in vitro; format: cell-based; details: human, BJ1 normal skin fibroblast cells, 100 μg/mL
[7] = tested on: prostate cancer (PC3); assay: cells; format: cell-based; details: Homo sapiens, 48 h
[8] = tested on: human lung carcinoma (A549); assay: cells; format: cell-based; details: 48 h
[9] = tested on: colon cancer (HCT116); assay: cells; format: cell-based; details: Homo sapiens, 48 h
[10] = tested on: CDKN2A; assay: qRT-PCR, CDKN2A in PACA2 cells; format: cell-based, human; details: versus negative untreated sample
[11] = tested on: A549; assay: DNA fragmentation assay, A549; format: cell-based, human
[12] = tested on: TP53; assay: qRT-PCR, TP53 in HCT116 cells; format: cell-based, human; details: versus negative samples
Procedure: RNA was extracted from pancreas, prostate, lung and liver cell lines using a total RNA purification kit (Qiagen, Hilden, Germany) according to the manufacturer's instructions. An aliquot of RNA was diluted in RNase-free water to estimate RNA quantity. Aliquots were used immediately for reverse transcription (RT). cDNA synthesis was performed on extracted RNA, which was treated with DNase (Invitrogen, Germany) to remove any possible DNA contamination. The DNase-treated RNA was reverse transcribed into first-strand cDNA using the RevertAid First Strand cDNA Synthesis kit (Fermantas) according to the manufacturer's instructions. Determination of the pancreas, prostate, lung and liver cell line cDNA copy number was carried out using StepOne™ Real-Time PCR System from Applied Biosystems (Thermo Fisher Scientific, Waltham, MA USA). Gene expressions were detected by real-time PCR, which was performed using the Rotor-Gene Q system (Qiagen Company). A 25 µL reaction mixture consisted of 12.5 µL SYBR® Premix Ex TaqTM (TaKaRa, Biotech. Co. Ltd.), 0.5 µL of each primer (10 PMole) (Table 1), 1 µL cDNA (50 ng) and 10.5 µL RNase free water. The optimum amplification conditions were chosen empirically according to each tested gene. Generally, the amplification conditions include initial incubation (95.0 °C for 3 min), then 40 cycles of amplification with denaturation (95.0 °C for 15 s), annealing (55.0 °C for 30 s) and extension (72.0 °C for 30 s) steps then 71 cycles which started at 60.0 °C and then increased about 0.5 °C every 10 s up to 95.0 °C. Mean cycle threshold (Ct) values of triplicate samples are used for analysis. The Ct value indicates the fractional cycle number at which the amount of amplified target reaches a fixed threshold. Data from real-time PCR were analyzed using 2^−∆∆Ct method[38]–[40]. Data were represented as the fold change in target gene expression normalized to a House-Keeping gene (HKG) and relative to the control. β-actin was used as a HKG to normalize input RNA amount, RNA quality and reverse transcription efficiency.

[13] = tested on: PALB2; assay: qRT-PCR, PALB2 in PACA2 cells; format: cell-based, human; details: versus negative untreated sample
[14] = tested on: hepatocellular carcinoma cell line (HePG2); assay: cells; format: cell-based; details: Homo sapiens, 48 h
[15] = tested on: PACA2; assay: DNA damage, comet assay, PACA2; format: cell-based, human
[16] = tested on: HCT116; assay: DNA damage, comet assay, HCT116; format: cell-based, human
[17] = tested on: PACA2; assay: DNA fragmentation assay, PACA2; format: cell-based, human
[18] = tested on: FASN; assay: qRT-PCR, FASN in HCT116 cells; format: cell-based, human; details: versus negative samples
[19] = tested on: HCT116; assay: DNA fragmentation assay, HCT116; format: cell-based, human
[20] = tested on: pancreatic cancer cell line (PACA2); assay: cells; format: cell-based; details: Homo sapiens, 48 h
[21] = tested on: PC3; assay: DNA damage, comet assay, PC3; format: cell-based, human
[22] = tested on: osteosarcoma cell line (HOS); assay: cells; format: cell-based; details: Homo sapiens, 48 h
[23] = tested on: KRAS; assay: qRT-PCR, KRAS in A549 cells; format: cell-based, human; details: versus negative samples
[24] = tested on: EGFR; assay: qRT-PCR, EGFR in A549 cells; format: cell-based, human; details: versus negative samples
[25] = tested on: BRCA2; assay: qRT-PCR, BRCA2 in PC3 cells; format: cell-based, human; details: versus negative samples

SMILES: COc1cccc2c1C(=O)c1c(O)c3c(c(O)c1C2=O)C[C@@](O)(C(=O)CO)C[C@@H]3O[C@H]1C[C@H](N)[C@H](O)[C@H](C)O1 [Doxorubicin, reference compound]
- Class 0 (no tail), number of cells [1]: 314
- Class 1 (tail length < diameter of nucleus), number of cells [1]: 25
- Class 2 (tail length between 1 and 2 × the diameter of nucleus), number of cells [1]: 32
- Class 3 (tail length > 2 × the diameter of nucleus), number of cells [1]: 29
- No. of cells, Comets [1]: 86
- Change (DNA fragmentation versus untreated cells) [2]: 20.1
- DNA fragmentation % M ± SEM ([2]; IC50 concentration, 24 h): 31.7 ± 0.85^b %
- Inhibition ([2]; doxorubicin = 0.0): 0.0
- mortality at 100 µg/mL ([3]; A-431, 100 μg/mL): 100%
- IC50 ([3]; A-431, MTT): 45.8 ± 0.15 µM
- BRCA1 gene expression level [4]: decreased significantly
- IC50 [5]: 24.8 ± 0.52 µM
- mortality at 48 h, 100 µg/mL [6]: 100%
- mortality at 100 µg/mL ([7]; 100 μg/mL): 100%
- IC50 ([7]; MTT): 43.8 ± 0.47 µM
- mortality at 100 µg/mL ([8]; 100 μg/mL): 100%
- IC50 ([8]; MTT): 52.1 ± 0.28 µM
- mortality at 100 µg/mL ([9]; HCT-116, 100 μg/mL): 100%
- IC50 ([9]; HCT-116, MTT): 69.2 ± 0.1 µM
- CDKN2A gene expression level [10]: significantly reduced
- Change (DNA fragmentation versus untreated cells) [11]: 19.5
- DNA fragmentation % M ± SEM ([11]; IC50 concentration, 24 h): 30.9 ± 1.64^a %
- Inhibition ([11]; doxorubicin = 0.0): 0.0
- TP53 gene expression level [12]: suppression
- PALB2 gene expression level [13]: significantly reduced
- mortality at 100 µg/mL ([14]; 100 μg/mL): 100%
- IC50 ([14]; MTT): 39.7 ± 0.18 µM
- DNA damaged cells % (mean ± SEM) [15]: 20.25 ± 0.75^a %
- Class 1 (tail length < diameter of nucleus), number of cells ([15]; of 400 cells analyzed): 28
- Class 2 (tail length between 1 and 2 × the diameter of nucleus), number of cells ([15]; of 400 cells analyzed): 26
- Class 3 (tail length > 2 × the diameter of nucleus), number of cells ([15]; of 400 cells analyzed): 27
- No. of cells, Comets ([15]; of 400 cells analyzed): 81
- DNA damaged cells % (mean ± SEM) [16]: 21.26 ± 0.48^ab %
- Class 0 (no tail), number of cells ([16]; of 400 cells analyzed): 315
- Class 1 (tail length < diameter of nucleus), number of cells ([16]; of 400 cells analyzed): 33
- Class 2 (tail length between 1 and 2 × the diameter of nucleus), number of cells ([16]; of 400 cells analyzed): 24
- Class 3 (tail length > 2 × the diameter of nucleus), number of cells ([16]; of 400 cells analyzed): 28
- No. of cells, Comets ([16]; of 400 cells analyzed): 85
- Change (DNA fragmentation versus untreated cells) [17]: 18.00
- DNA fragmentation % M ± SEM ([17]; IC50 concentration, 24 h): 30.1 ± 0.62^b %
- Inhibition ([17]; doxorubicin = 0.0): 0.0
- FASN gene expression level [18]: suppression
- Change (DNA fragmentation versus untreated cells) [19]: 21.00
- Inhibition ([19]; doxorubicin = 0.00): 0.00
- mortality at 100 µg/mL ([20]; PaCa-2, 100 μg/mL): 100%
- IC50 ([20]; PaCa-2, MTT): 52.1 ± 0.19 µM
- DNA damaged cells % (mean ± SEM) [21]: 20.76 ± 1.38^b %
- Class 0 (no tail), number of cells ([21]; of 400 cells analyzed): 317
- Class 1 (tail length < diameter of nucleus), number of cells ([21]; of 400 cells analyzed): 39
- Class 2 (tail length between 1 and 2 × the diameter of nucleus), number of cells ([21]; of 400 cells analyzed): 30
- Class 3 (tail length > 2 × the diameter of nucleus), number of cells ([21]; of 400 cells analyzed): 14
- No. of cells, Comets ([21]; of 400 cells analyzed): 83
- mortality at 100 µg/mL ([22]; 100 μg/mL): 100%
- IC50 ([22]; MTT): 24.3 ± 0.24 µM
- KRAS gene expression level [23]: significant reduction
- EGFR gene expression level [24]: significant reduction
- BRCA2 gene expression level [25]: decreased significantly
